Results as given in ChEMBL document CHEMBL1201861, “Genomics of Drug Sensitity in Cancer screening data, Wellcome Trust Sanger Institute”.

Key:
Assay in all cases: cells
COLO-741 = type: functional, cell-based, Homo sapiens; details: Homo sapiens, COLO-741
Description: SANGER: Inhibition of human COLO-741 cell growth in a cell viability assay.

COR-L23 = type: functional, cell-based, Homo sapiens; details: Homo sapiens, COR-L23
Description: SANGER: Inhibition of human COR-L23 cell growth in a cell viability assay.

EFO-21 = type: functional, cell-based, Homo sapiens; details: Homo sapiens, EFO-21
Description: SANGER: Inhibition of human EFO-21 cell growth in a cell viability assay.

ES4 = type: functional, cell-based, Homo sapiens; details: Homo sapiens, ES4
Description: SANGER: Inhibition of human ES4 cell growth in a cell viability assay.

G-401 = type: functional, cell-based, Homo sapiens; details: Homo sapiens, G-401
Description: SANGER: Inhibition of human G-401 cell growth in a cell viability assay.

GCT = type: functional, cell-based, Homo sapiens; details: Homo sapiens, GCT
Description: SANGER: Inhibition of human GCT cell growth in a cell viability assay.

HCC1419 = type: functional, cell-based, Homo sapiens; details: Homo sapiens, HCC1419
Description: SANGER: Inhibition of human HCC1419 cell growth in a cell viability assay.

HOS = type: functional, cell-based, Homo sapiens; details: Homo sapiens, HOS
Description: SANGER: Inhibition of human HOS cell growth in a cell viability assay.

Huh-7 = type: functional, cell-based, Homo sapiens; details: Homo sapiens, Huh-7
Description: SANGER: Inhibition of human HuH-7 cell growth in a cell viability assay.

IGR-1 = type: functional, cell-based, Homo sapiens; details: Homo sapiens, IGR-1
Description: SANGER: Inhibition of human IGR-1 cell growth in a cell viability assay.

IST-MEL1 = type: functional, cell-based, Homo sapiens; details: Homo sapiens, IST-MEL1
Description: SANGER: Inhibition of human IST-MEL1 cell growth in a cell viability assay.

KLE = type: functional, cell-based, Homo sapiens; details: Homo sapiens, KLE
Description: SANGER: Inhibition of human KLE cell growth in a cell viability assay.

KYSE-150 cell line = type: functional, cell-based, Homo sapiens; details: Homo sapiens, KYSE-150
Description: SANGER: Inhibition of human KYSE-150 cell growth in a cell viability assay.

KYSE-270 = type: functional, cell-based, Homo sapiens; details: Homo sapiens, KYSE-270
Description: SANGER: Inhibition of human KYSE-270 cell growth in a cell viability assay.

LCLC-103H cell line = type: functional, cell-based, Homo sapiens; details: Homo sapiens, LCLC-103H
Description: SANGER: Inhibition of human LCLC-103H cell growth in a cell viability assay.

LS-513 = type: functional, cell-based, Homo sapiens; details: Homo sapiens, LS-513
Description: SANGER: Inhibition of human LS-513 cell growth in a cell viability assay.

LU-134-A = type: functional, cell-based; details: Homo sapiens
Description: SANGER: Inhibition of human LU-134-A cell growth in a cell viability assay.

MC-IXC = type: functional, cell-based, Homo sapiens; details: Homo sapiens, MC-IXC
Description: SANGER: Inhibition of human MC-IXC cell growth in a cell viability assay.

ME-180 = type: functional, cell-based; details: Homo sapiens
Description: SANGER: Inhibition of human ME-180 cell growth in a cell viability assay.

MG-63 = type: functional, cell-based, Homo sapiens; details: Homo sapiens, MG-63
Description: SANGER: Inhibition of human MG-63 cell growth in a cell viability assay.

NCI-H1092 = type: functional, cell-based; details: Homo sapiens
Description: SANGER: Inhibition of human NCI-H1092 cell growth in a cell viability assay.

NCI-H1395 = type: functional, cell-based, Homo sapiens; details: Homo sapiens, NCI-H1395
Description: SANGER: Inhibition of human NCI-H1395 cell growth in a cell viability assay.

NCI-H1755 = type: functional, cell-based, Homo sapiens; details: Homo sapiens, NCI-H1755
Description: SANGER: Inhibition of human NCI-H1755 cell growth in a cell viability assay.

NCI-H1793 = type: functional, cell-based, Homo sapiens; details: Homo sapiens, NCI-H1793
Description: SANGER: Inhibition of human NCI-H1793 cell growth in a cell viability assay.

NCI-H2087 = type: functional, cell-based, Homo sapiens; details: Homo sapiens, NCI-H2087
Description: SANGER: Inhibition of human NCI-H2087 cell growth in a cell viability assay.

NCI-H2126 = type: functional, cell-based, Homo sapiens; details: Homo sapiens, NCI-H2126
Description: SANGER: Inhibition of human NCI-H2126 cell growth in a cell viability assay.

NCI-H2452 = type: functional, cell-based, Homo sapiens; details: Homo sapiens, NCI-H2452
Description: SANGER: Inhibition of human NCI-H2452 cell growth in a cell viability assay.

NCI-H747 = type: functional, cell-based; details: Homo sapiens
Description: SANGER: Inhibition of human NCI-H747 cell growth in a cell viability assay.

OVCAR-5 = type: functional, cell-based, Homo sapiens; details: Homo sapiens, OVCAR-5
Description: SANGER: Inhibition of human OVCAR-5 cell growth in a cell viability assay.

P30-OHK = type: functional, cell-based; details: Homo sapiens
Description: SANGER: Inhibition of human P30-OHK cell growth in a cell viability assay.

PA-1 = type: functional, cell-based, Homo sapiens; details: Homo sapiens, PA-1
Description: SANGER: Inhibition of human PA-1 cell growth in a cell viability assay.

QIMR-WIL = type: functional, cell-based; details: Homo sapiens
Description: SANGER: Inhibition of human QIMR-WIL cell growth in a cell viability assay.

RH-1 = type: functional, cell-based, Homo sapiens; details: Homo sapiens, RH-1
Description: SANGER: Inhibition of human RH-1 cell growth in a cell viability assay.

Ramos-2G6-4C10 = type: functional, cell-based; details: Homo sapiens
Description: SANGER: Inhibition of human Ramos-2G6-4C10 cell growth in a cell viability assay.

SF-268 = type: functional, cell-based, Homo sapiens; details: Homo sapiens, SF-268
Description: SANGER: Inhibition of human SF268 cell growth in a cell viability assay.

SK-MEL-30 = type: functional, cell-based; details: Homo sapiens
Description: SANGER: Inhibition of human SK-MEL-30 cell growth in a cell viability assay.

SK-NEP-1 = type: functional, cell-based; details: Homo sapiens
Description: SANGER: Inhibition of human SK-NEP-1 cell growth in a cell viability assay.

SW1417 = type: functional, cell-based, Homo sapiens; details: Homo sapiens, SW1417
Description: SANGER: Inhibition of human SW1417 cell growth in a cell viability assay.

SW1573 = type: functional, cell-based, Homo sapiens; details: Homo sapiens, SW1573
Description: SANGER: Inhibition of human SW1573 cell growth in a cell viability assay.

SW1783 = type: functional, cell-based; details: Homo sapiens
Description: SANGER: Inhibition of human SW1783 cell growth in a cell viability assay.

SW684 = type: functional, cell-based, Homo sapiens; details: Homo sapiens, SW684
Description: SANGER: Inhibition of human SW684 cell growth in a cell viability assay.

SW948 = type: functional, cell-based, Homo sapiens; details: Homo sapiens, SW948
Description: SANGER: Inhibition of human SW948 cell growth in a cell viability assay.

T-24 = type: functional, cell-based, Homo sapiens; details: Homo sapiens, T-24
Description: SANGER: Inhibition of human T-24 cell growth in a cell viability assay.

639-V = type: functional, cell-based, Homo sapiens; details: Homo sapiens, 639-V
Description: SANGER: Inhibition of human 639-V cell growth in a cell viability assay.

A-375 = type: functional, cell-based, Homo sapiens; details: Homo sapiens, A-375
Description: SANGER: Inhibition of human A375 cell growth in a cell viability assay.

A388 = type: functional, cell-based, Homo sapiens; details: Homo sapiens, A388
Description: SANGER: Inhibition of human A388 cell growth in a cell viability assay.

C8166 = type: functional, cell-based; details: Homo sapiens
Description: SANGER: Inhibition of human C8166 cell growth in a cell viability assay.

CAL-120 = type: functional, cell-based, Homo sapiens; details: Homo sapiens, CAL-120
Description: SANGER: Inhibition of human CAL-120 cell growth in a cell viability assay.

CAL-51 = type: functional, cell-based, Homo sapiens; details: Homo sapiens, CAL-51
Description: SANGER: Inhibition of human CAL-51 cell growth in a cell viability assay.

U-87 MG = type: functional, cell-based, U-87MG ATCC; details: Homo sapiens
Description: SANGER: Inhibition of human U-87-MG cell growth in a cell viability assay.

COLO-668 = type: functional, cell-based, Homo sapiens; details: Homo sapiens, COLO-668
Description: SANGER: Inhibition of human COLO-668 cell growth in a cell viability assay.

## Nc1ccn([C@@H]2O[C@H](CO)[C@@H](O)[C@@H]2O)c(=O)n1 [CYTARABINE]
COLO-741
  IC50: > 2000 nM
COR-L23
  IC50: 797 nM
EFO-21
  IC50: 1550 nM
ES4
  IC50: 214 nM
G-401
  IC50: 758 nM
GCT
  IC50: 856 nM
HCC1419
  IC50: > 2000 nM
HOS
  IC50: 518 nM
Huh-7
  IC50: > 2000 nM
IGR-1
  IC50: 1780 nM
IST-MEL1
  IC50: 381 nM
KLE
  IC50: > 2000 nM
KYSE-150 cell line
  IC50: > 2000 nM
KYSE-270
  IC50: 849 nM
LCLC-103H cell line
  IC50: > 2000 nM
LS-513
  IC50: 380 nM
LU-134-A
  IC50: > 2000 nM
MC-IXC
  IC50: 41.4 nM
ME-180
  IC50: > 2000 nM
MG-63
  IC50: > 2000 nM
NCI-H1092
  IC50: > 2000 nM
NCI-H1395
  IC50: > 2000 nM
NCI-H1755
  IC50: > 2000 nM
NCI-H1793
  IC50: > 2000 nM
NCI-H2087
  IC50: > 2000 nM
NCI-H2126
  IC50: > 2000 nM
NCI-H2452
  IC50: > 2000 nM
NCI-H747
  IC50: > 2000 nM
OVCAR-5
  IC50: 220 nM
P30-OHK
  IC50: 56.5 nM
PA-1
  IC50: 187 nM
QIMR-WIL
  IC50: > 2000 nM
RH-1
  IC50: 328 nM
Ramos-2G6-4C10
  IC50: 868 nM
SF-268
  IC50: 1360 nM
SK-MEL-30
  IC50: > 2000 nM
SK-NEP-1
  IC50: > 2000 nM
SW1417
  IC50: > 2000 nM
SW1573
  IC50: > 2000 nM
SW1783
  IC50: > 2000 nM
SW684
  IC50: > 2000 nM
SW948
  IC50: > 2000 nM
T-24
  IC50: 78.6 nM
639-V
  IC50: > 2000 nM
A-375
  IC50: 396 nM
A388
  IC50: 740 nM
C8166
  IC50: > 2000 nM
CAL-120
  IC50: > 2000 nM
CAL-51
  IC50: 571 nM
U-87 MG
  IC50: 1740 nM
COLO-668
  IC50: 809 nM

## CC(=O)O[C@@]12CO[C@@H]1C[C@H](O)[C@@]1(C)C(=O)[C@H](O)C3=C(C)[C@@H](OC(=O)[C@H](O)[C@@H](NC(=O)OC(C)(C)C)c4ccccc4)C[C@@](O)([C@@H](OC(=O)c4ccccc4)[C@H]21)C3(C)C [DOCETAXEL]
COLO-741
  IC50: 8.2 nM
COR-L23
  IC50: 2.2 nM
EFO-21
  IC50: > 10 nM
ES4
  IC50: 1.55 nM
G-401
  IC50: 1.27 nM
GCT
  IC50: 1.8 nM
HCC1419
  IC50: > 10 nM
HOS
  IC50: 0.782 nM
Huh-7
  IC50: > 10 nM
IGR-1
  IC50: 6.41 nM
IST-MEL1
  IC50: 2.25 nM
KLE
  IC50: > 10 nM
KYSE-150 cell line
  IC50: 4.99 nM
KYSE-270
  IC50: 2.78 nM
LCLC-103H cell line
  IC50: 2.93 nM
LS-513
  IC50: > 10 nM
LU-134-A
  IC50: > 10 nM
MC-IXC
  IC50: 0.479 nM
ME-180
  IC50: 1.69 nM
MG-63
  IC50: 1.51 nM
NCI-H1092
  IC50: > 10 nM
NCI-H1395
  IC50: 3.96 nM
NCI-H1755
  IC50: 6.24 nM
NCI-H1793
  IC50: > 10 nM
NCI-H2087
  IC50: 7.48 nM
NCI-H2126
  IC50: 7.73 nM
NCI-H2452
  IC50: 2.16 nM
NCI-H747
  IC50: > 10 nM
OVCAR-5
  IC50: 1.99 nM
P30-OHK
  IC50: > 10 nM
PA-1
  IC50: 0.687 nM
QIMR-WIL
  IC50: 4.38 nM
RH-1
  IC50: 0.386 nM
Ramos-2G6-4C10
  IC50: > 10 nM
SF-268
  IC50: 1.21 nM
SK-MEL-30
  IC50: 7.32 nM
SK-NEP-1
  IC50: 1.76 nM
SW1417
  IC50: 2.76 nM
SW1573
  IC50: 5.54 nM
SW1783
  IC50: 5.7 nM
SW684
  IC50: > 10 nM
SW948
  IC50: > 10 nM
T-24
  IC50: > 10 nM
639-V
  IC50: 0.647 nM
A-375
  IC50: 1.21 nM
A388
  IC50: 2.65 nM
C8166
  IC50: > 10 nM
CAL-120
  IC50: 4.35 nM
CAL-51
  IC50: 2.71 nM
U-87 MG
  IC50: 3.55 nM
COLO-668
  IC50: > 10 nM
